According to patent EP0663826B1, “AMINO ACIDS CONTAINING PARENTERAL FORMULATIONS FOR THE TREATMENT OF HYPOTENSION AND RELATED PATHOLOGIES” (BOARD OF REGENTS THE UNIVERSITY OF TEXAS SYSTEM, priority 1991, dated 1993):

Legend:
[1] = system: IL-1-Induced Hypotension in Dogs; assay: IL-1-induced hypotension in dogs; type: in vivo; settings: for MAP after arginine administration: then L-arginine 400 mg/kg
Description: • FIGURE 1 - Reversal of hypotension associated with the administration of IL-1 to dogs. The tracing shown is a representative experiment that was repeated four times. Each dog was anesthetized and […] as described herein, and baseline cardiovascular data were monitored for 30 minutes. IL-1 was dissolved in phosphate-buffered saline (pH 7.4) containing 1 mg/ml of dog albumin, and the resulting solution was infused intravenously for three minutes to deliver a dose of 50 µg/kg. MAP was continuously monitored; when a stable nadir was reached and maintained for more than 10 minutes or when MAP dropped below 50 mm Hg, NAA (20 mg/kg in 10 ml phosphate-buffered saline) was administered by intravenous infusion for 30 seconds. Sixty minutes after MAP was restored to baseline or higher values, L-arginine (400 mg/kg in 20 ml phosphate-buffered saline) was administered by slow intravenous infusion for 5 minutes. Anesthetized dogs given IL-1 (50 µg/kg) developed a progressive, moderately severe hypotension, with MAP decreasing from a baseline of 111 +/- 7 mm Hg to 80 +/- 2 mm Hg within about 3 hours. Hypotension was rapidly reversed by the intravenous administration of a single bolus dose of NAA (20 mg/kg, 88 umol/kg), with MAP increasing by from 46 +/- 9 mm Hg (58%_ to 125 +/- 8 mm Hg. • FIGURES 2A, 2B, 2C - Inhibition of IL-1-activated NO· production by N^ω-substituted arginine analogues. Figure 2A: Comparison of nitrite synthesis inhibition in smooth muscle cells by the L-isomers of NAA, NMA, and NNA and by the D-isomer of NMA. Figure 2B: Concentration dependence of nitrite synthesis inhibition in smooth muscle cells by NAA as a function of different L-arginine concentration in the culture medium. Confluent monolayers of smooth muscle cells in 96-well microtiter plates were treated with a combination of 100 ng/ml IL-1 and 50 ng/ml IFN-γ for 24 hours. Cells were then washed with Hanks' balanced salt solution, and fresh medium containing the indicated concentration of L-arginine was added. Points indicate means ± SD of nitrite production, expressed as percent of control, during a 16-hour exposure to arginine analogues (n = 3-4). Figure 2C: Effect of NAA on smooth muscle cell NO· synthase. Cytosol from cytokine-induced smooth muscle cells (∼2 µg protein) was incubated with 1 mM L-arginine, 0.5 mM NADPH, 1 mM dithiothreitol, 10 µM flavin-adenine dinucleotide, 10 µM tetrahydrobiopterin, and 0.1 U/ml dihydropteridine reductase in a total volume of 100 µL. The time course of Fe^2+-myoglobin oxidation was measured in the absence (control) or presence of 300 µM NAA (+NAA). […] FIGURE A: Time course of nitrite synthesis elicited by 40 ng/mL IL-1 alone (open circles) and by IL-1 in the presence of 50 ng/ml IFN-γ (open triangles). […] Inclusion of IL-1 receptor antagonist (40 µg/mL; filled symbols) in the culture medium inhibited nitrite production stimulated by both IL-1 and IL-1 plus IFN-γ. FIGURE B: IL-1 concentration dependence for smooth muscle cell nitrite production. Data points indicate nitrite produced during a 29-hour incubation with the indicated concentration of IL-1 alone (open circles) or in the presence of IL-1 plus 50 ng/mL IFN-γ (open triangles). All values are means ± SD for nitrite production by confluent smooth muscle cell monolayers grown in 96-well microtiter plates (60-80 X 10^3 cells per well; n = 3-4).
Experiments were conducted on healthy mongrel dogs that were free of microfilaria and weighed 25-28 kg each. […]

[2] = system: hypotension associated with the administration of TNF in the dog; assay: TNF-induced hypotension in the dog; type: in vivo, dogs; settings: L-arginine to previously untreated normotensive dogs
Description: Recombinant human TNF, specific activity 2 x 10^7 units/mg, was from the Dainippon Chemical Corporation, Tokyo, Japan. TNF was administered at a dose of 10 µg//kg in a volume of 10 ml of phosphate buffered saline containing 17 mg/ml of dog albumin. […] Arginine was obtained from Sigma Chemical Company, St. Louis, Mo.
Four conditioned mongrel dogs, 2 males and 2 females, weighing 28 to 30 kg, were studied. Care of the animals were in accordance with the recommendations of the American Association for Accreditation of Laboratory Animals [DHEW(DHHS) publication no. (NIH) 78-23, revised, 1978]. On the day of the experiment, the dogs were fasted overnight. They were anesthetized with phenobarbital (25 mg/kg). The animals were then intubated orally with a #10 fr. endotracheal tube and ventilated with a Harvard pump ventilator at a rate of 14 breaths per minute and a tidal volume of 15 ml/kg. An arterial line was percutaneously placed in the femoral artery on the day of the experiment.
Mean (electronic) and phasic systemic arterial pressures (SAP) were continuously recorded on a Hewlett-Packard recording system (model 7758B) using strain gauge manometers (Hewlett-Packard model 1290A) which were connected to the arterial line. Heart rate (HR) was determined from an EKG tracing and continuously recorded on the Hewlett-Packard recording system. Oxyhemoglobin saturation (SaO2) was obtained using a pulse oximeter (BIOX 111, Boulder, CO). Continuous time-series records of SAP, HR, and SaO2 were obtained using a Lab Master analog-to-digital convertor (16 channel, 12 bit, 30 kHz; Scientific Solutions, Inc.) sampling at 55 Hz and storing the 6 sec averages on a magnetic disk.

Question: What does the source list for `N=C(N)NCCC[C@H](N)C(=O)O` [L-arginine]?
Answer: average decrease in systemic vascular resistance following arginine ([1]; IL-1-treated animals given NAA, then arginine): 61%; MAP after arginine administration ([1]; IL-1-treated dogs given NAA): 66 ± 27 mm Hg; MAP after arginine administration ([1]; control dogs given NAA): essentially at baseline levels; effect on blood pressure [2]: not affected
